Assay results as given in ChEMBL document CHEMBL4706632, “Development of Potential Antitumor Agents from the Scaffolds of Plant-Derived Terpenoid Lactones” (J Med Chem, 2020).

Tests used:
HeLa [1] = assay: Cytotoxicity against human HeLa cells incubated for 48 hrs by SRB assay; type: functional, cell-based
IMR-32 = assay: Cytotoxicity against human IMR-32 cells incubated for 48 hrs by SRB assay; type: functional, cell-based; settings: IMR-32, 48 h
HepG2 = assay: Cytotoxicity against human HepG2 cells incubated for 48 hrs by SRB assay; type: functional, cell-based; settings: HepG2, 48 h
MCF7 [2] = assay: Antiproliferative activity against human MCF7 cells by tetrazolium-based semiautomated colorimetric assay; type: functional, cell-based
CCRF-CEM = assay: Cytotoxicity against human CEM cells incubated for 72 hrs by MTT assay; type: functional, cell-based
HL-60 [3] = assay: Cytotoxicity against human HL-60 cells incubated for 72 hrs by MTT assay; type: functional, cell-based; settings: HL-60, 72 h
Jurkat = assay: Cytotoxicity against human Jurkat cells incubated for 72 hrs by MTT assay; type: functional, cell-based
MCF7 [4] = assay: Antiproliferative activity against human MCF7 cells incubated for 48 hrs by [3H]-thymidine incorporation assay; type: functional, cell-based
MDA-MB-435 = assay: Antiproliferative activity against human MDA-MB-435 cells incubated for 48 hrs by [3H]-thymidine incorporation assay; type: functional, cell-based
SW480 = assay: Antiproliferative activity against human SW480 cells incubated for 72 hrs by MTT assay; type: functional, cell-based; settings: SW480, 72 h
MCF7 [5] = assay: Cytotoxicity against human MCF7 cells incubated for 48 hrs by sulforhodamine B staining based spectrophotometric assay; type: functional, cell-based; settings: MCF7, 48 h
UACC-62 = assay: Cytotoxicity against human UACC-62 cells incubated for 48 hrs by sulforhodamine B staining based spectrophotometric assay; type: functional, cell-based; settings: UACC-62, 48 h
HT-29 = assay: Antiproliferative activity against human HT-29 cells; type: functional, cell-based
HeLa [6] = assay: Antiproliferative activity against human HeLa cells; type: functional, cell-based
HCT-116 = assay: Antiproliferative activity against human HCT-116 cells incubated for 72 hrs by WST-1 assay; type: functional, cell-based; settings: HCT-116, 72 h
HL-60 [7] = assay: Antiproliferative activity against human HL-60 cells; type: functional, cell-based
MCF7 [8] = assay: Cytotoxicity against human MCF-7 cells incubated for 72 hrs by MTT assay; type: functional, cell-based; settings: MCF7, 72 h
MDA-MB-231 = assay: Cytotoxicity against human MDA-MB-231 cells incubated for 72 hrs by MTT assay; type: functional, cell-based; settings: MDA-MB-231, 72 h
PANC-1 = assay: Cytotoxicity against human Panc-1 cells incubated for 48 hrs by CCK8 assay; type: functional, cell-based; settings: PANC-1, 48 h
CCRF S-180 = assay: Cytotoxicity against mouse CCRF S-180 cells incubated for 48 hrs by sulforhodamine B staining based ELISA; type: functional, cell-based; settings: CCRF S-180, 48 h
LNCaP = assay: Cytotoxicity against human LNCAP cells incubated for 48 hrs clonogenic survival assay; type: functional, cell-based; settings: time 48 hrs, read-out: LD50 (the source's name)
EL4 = assay: Cytotoxicity against mouse EL4 cells incubated for 48 hrs by sulforhodamine B staining based ELISA; type: functional, cell-based; settings: EL4, 48 h
MCF7 [9] = assay: Cytotoxicity against human MCF7 cells incubated for 48 hrs by sulforhodamine B staining based ELISA; type: functional, cell-based; settings: MCF7, 48 h
[10] = molecular target: Sarcoplasmic/endoplasmic reticulum calcium ATPase 1 (Oryctolagus cuniculus, UniProt P04191); assay: Inhibition of rabbit skeletal muscle SERCA1 assessed as reduction in calcium uptake preincubated for 10 mins followed by ATP addition and measured after 4 mins by scintillation liquid method
[11] = Cytotoxicity against human TSU-Pr1 cells incubated for 2 hrs; type: functional, cell-based; settings: TSU-Pr1, 2 h

Sequence of Sarcoplasmic/endoplasmic reticulum calcium ATPase 1 (P04191 whole entry): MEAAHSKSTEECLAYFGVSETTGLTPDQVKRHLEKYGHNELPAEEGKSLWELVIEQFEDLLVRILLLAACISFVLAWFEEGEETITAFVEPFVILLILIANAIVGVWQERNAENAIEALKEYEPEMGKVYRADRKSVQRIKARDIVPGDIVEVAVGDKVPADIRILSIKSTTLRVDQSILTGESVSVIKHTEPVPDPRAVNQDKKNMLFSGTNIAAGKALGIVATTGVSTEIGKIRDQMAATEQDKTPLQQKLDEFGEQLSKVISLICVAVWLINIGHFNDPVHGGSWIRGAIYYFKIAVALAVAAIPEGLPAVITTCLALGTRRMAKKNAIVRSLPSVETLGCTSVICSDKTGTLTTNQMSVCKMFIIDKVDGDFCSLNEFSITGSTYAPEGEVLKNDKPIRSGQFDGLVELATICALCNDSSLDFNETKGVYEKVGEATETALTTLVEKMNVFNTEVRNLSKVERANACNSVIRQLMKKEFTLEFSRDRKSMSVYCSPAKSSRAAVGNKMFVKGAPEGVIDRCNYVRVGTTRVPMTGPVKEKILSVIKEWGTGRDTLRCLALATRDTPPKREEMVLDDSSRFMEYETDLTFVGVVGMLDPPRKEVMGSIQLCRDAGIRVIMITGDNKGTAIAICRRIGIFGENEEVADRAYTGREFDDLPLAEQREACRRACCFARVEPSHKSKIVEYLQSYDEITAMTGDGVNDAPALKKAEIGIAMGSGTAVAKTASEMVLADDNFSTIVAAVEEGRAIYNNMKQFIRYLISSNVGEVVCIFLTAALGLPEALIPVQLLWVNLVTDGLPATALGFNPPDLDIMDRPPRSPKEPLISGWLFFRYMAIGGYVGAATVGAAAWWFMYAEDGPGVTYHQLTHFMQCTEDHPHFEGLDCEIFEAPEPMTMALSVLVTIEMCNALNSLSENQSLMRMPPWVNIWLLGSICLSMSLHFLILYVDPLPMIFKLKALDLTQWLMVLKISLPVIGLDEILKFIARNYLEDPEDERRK

For C=C1[C@@H]2CC[C@@]3(C)[C@H](c4ccoc4)OC(=O)C[C@]13O[C@H]1C[C@H](OC(C)=O)C(C)(C)[C@H](CC(=O)OC)[C@]12C, the IC50 (HeLa [1]) was 61 µM, the IC50 (IMR-32) was 0.022 µM and the IC50 (HepG2) was > 100 µM.

Molecule C[C@H]1[C@@H](CCC(=O)NCC[C@H]2O[C@@H]3O[C@]4(C)CC[C@H]5[C@H](C)CC[C@@H]([C@H]2C)[C@@]35OO4)O[C@@H]2O[C@@]3(C)CC[C@H]4[C@H](C)CC[C@@H]1[C@@]24OO3 has an IC50 (MCF7 [2]) of 0.008 µM.

CC(O)CC(=O)O[C@@]1(C)CO[C@@]2(C1)OC(=O)[C@H]([C@@H]1CC[C@]34C[C@]13C=C[C@@H]1[C@@]3(C)CC=C5C[C@@H](Cc6ccccc6)OC[C@]5(C)[C@@H]3C[C@@H](O)[C@]14C)[C@H]2O (some centres not stated) showed an IC50 (CCRF-CEM) of 3.1 µM, an IC50 (HL-60 [3]) of 5.6 µM and an IC50 (Jurkat) of 1.8 µM.

With C=C1[C@@H]2CC[C@@]3(C)[C@H](c4ccoc4)OC(=O)C[C@]13O[C@H]1C[C@H](OC(=O)CN3CCN(C(=O)c4ccccc4)CC3)C(C)(C)[C@H](CC(=O)OC)[C@]12C the IC50 (HeLa [1]) was 14 µM, the IC50 (IMR-32) was > 100 µM and the IC50 (HepG2) was 0.01 µM.

For CC(=O)O[C@@]1(C)COC2(C1)OC(=O)[C@H]([C@@H]1CC[C@]34C[C@]13C=C[C@@H]1[C@@]3(C)CC=C5C[C@@H](Cc6ccccc6)OC[C@]5(C)[C@@H]3C[C@@H](O)[C@]14C)[C@H]2O (some centres not stated), the IC50 (CCRF-CEM) was 24 µM, the IC50 (HL-60 [3]) was 30 µM and the IC50 (Jurkat) was 2.7 µM.

In the case of CC1(C)OC(=O)C=C[C@]2(C)[C@H]3CC[C@@](C)([C@@H](O[C@H]4O[C@H](CO)[C@@H](O)[C@H](O)[C@H]4O)c4ccoc4)[C@@]4(O[C@@H]4C(=O)O)[C@]3(C)C(=O)C[C@@H]12, the IC50 (MCF7 [4]) is reported as 3.2 µM, the IC50 (MDA-MB-435) is reported as 10 µM and the IC50 (SW480) is reported as 60 µM.

CC(=O)O[C@H]1C=C2C(=O)C3=C(C)C(=O)O[C@@H]3C[C@H]2[C@]2(C)CCCC(C)(C)[C@@H]12 gave an IC50 (MCF7 [5]) of 0.13 µM and an IC50 (UACC-62) of 0.08 µM.

COC(=O)[C@@]12OC[C@]34[C@H]([C@@H](O)[C@@H]1O)[C@@]1(C)CC(=O)C(O)=C(C)[C@@H]1C[C@H]3OC(=O)[C@H](OC(=O)/C=C(\C)C(C)C)[C@@H]24 [BRUCEANTIN] showed an IC50 (HT-29) of 0.022 µM and an IC50 (HeLa [6]) of 0.029 µM.

Work on COC(=O)[C@@]12OC[C@]34[C@H]([C@@H](O)[C@@H]1O)[C@@]1(C)CC(=O)C(O)=C(C)[C@@H]1C[C@H]3OC(=O)[C@H](OC(=O)CC(C)C)[C@@H]24 [BRUCEINE A] yielded an IC50 (HCT-116) of 0.082 µM, an IC50 (HL-60 [7]) of 0.13 µM and an IC50 (HT-29) of 3.1 µM. It also gave an IC50 (HeLa [6]) of 1.1 µM, an IC50 (MCF7 [8]) of 0.18 µM and an IC50 (MDA-MB-231) of 0.23 µM.

CC(C)[C@]12O[C@H]1[C@@H]1O[C@]13[C@]1(O[C@H]1C[C@H]1C4=C(CC[C@@]13C)C(=O)OC4)[C@@H]2OCOP(=O)(O)O [MINNELIDE] showed an IC50 (PANC-1) of 0.2 µM.

In the case of CC1(C)OC(=O)C=C[C@]2(C)[C@H]3CC[C@@]4(C)[C@H](c5ccoc5)OC(=O)[C@H]5O[C@]54[C@]3(C)C(=O)C[C@@H]12 [OBACUNONE], the IC50 (MCF7 [4]) is reported as 0.02 µM, the IC50 (MDA-MB-435) is reported as 6.8 µM and the IC50 (SW480) is reported as 56 µM.

Molecule C/C=C(/C)C(=O)O[C@H]1C(C)=C2[C@H]([C@@H]1OC(=O)CCCCCCC)[C@@](C)(OC(C)=O)C[C@H](OC(=O)CCC)[C@@]1(O)[C@H]2OC(=O)[C@@]1(C)O [THAPSIGARGIN] has an IC50 (CCRF S-180) of 0.03 µM, a CC50 (LNCaP) of 0.01 µM and an IC50 (EL4) of 0.1 µM. The IC50 (MCF7 [9]) was 2.3 µM, the IC50 [10] was 0.0039 µM and the IC50 [11] was 0.03 µM.

In the case of CC(C)[C@]12O[C@H]1[C@@H]1O[C@]13[C@]1(O[C@H]1C[C@H]1C4=C(CC[C@@]13C)C(=O)OC4)[C@@H]2O [TRIPTOLIDE], the IC50 (PANC-1) is reported as 0.2 µM.
